# Calls of active or inactive are those of the source.
# Legend:
# [1] = system: H9c2; experiment: cells; type: functional, cell-based; conditions: Rattus norvegicus, H9c2, Myocardium;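 note: confirmatory concentration-response retest of ultra-high-throughput screening hits for modulation of myocardial damage; cell death induced by hydrogen peroxide oxidative stress; compound pretreatment for 60 min then peroxide exposure for 2 h; potency is for protecting the cells against peroxide damage rather than for killing them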
# [2] = target: T1, Ubiquitin-conjugating enzyme E2 N (Homo sapiens, UniProt P61088); type: functional;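 note: Dose-response confirmation in a TR-FRET assay detecting UBC13-driven polyubiquitin chain formation, inhibition measured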
# T1 sequence (P61088 whole entry): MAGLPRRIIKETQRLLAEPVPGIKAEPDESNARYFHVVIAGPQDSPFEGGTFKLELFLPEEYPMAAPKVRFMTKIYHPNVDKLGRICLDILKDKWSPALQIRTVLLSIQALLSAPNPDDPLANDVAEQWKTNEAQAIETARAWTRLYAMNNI
# [3] = loss of viability in HepG2 cells – cell-based, CellTiter-Glo, cherry-picked, cytotoxicity control for Shn3 inhibitor project, dose response (AID 624134); type: functional
# [4] = non-specific 3'UTR reporter inhibition in Clone20-Shn3RL – cell-based, Renilla luciferase, cherry-picked, counter-screen for Shn3 inhibitor project, dose response (AID 624133); type: functional
# [5] = reduction of Shn3 3'UTR-driven luciferase in osteoblasts – cell-based, Clone20 osteoblasts, firefly luciferase, cherry-picked, dose response (AID 624132); type: functional;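 note: firefly luciferase luminescence from reporter carrying the Shn3 3'UTR in osteoblasts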
# [6] = target: Large T antigen (Simian virus 40, UniProt P03070); type: functional, Betapolyomavirus macacae;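 note: Confirmatory-stage PubChem screen for compounds that inhibit SV40 T antigen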
# Sequence of Large T antigen (P03070 whole entry): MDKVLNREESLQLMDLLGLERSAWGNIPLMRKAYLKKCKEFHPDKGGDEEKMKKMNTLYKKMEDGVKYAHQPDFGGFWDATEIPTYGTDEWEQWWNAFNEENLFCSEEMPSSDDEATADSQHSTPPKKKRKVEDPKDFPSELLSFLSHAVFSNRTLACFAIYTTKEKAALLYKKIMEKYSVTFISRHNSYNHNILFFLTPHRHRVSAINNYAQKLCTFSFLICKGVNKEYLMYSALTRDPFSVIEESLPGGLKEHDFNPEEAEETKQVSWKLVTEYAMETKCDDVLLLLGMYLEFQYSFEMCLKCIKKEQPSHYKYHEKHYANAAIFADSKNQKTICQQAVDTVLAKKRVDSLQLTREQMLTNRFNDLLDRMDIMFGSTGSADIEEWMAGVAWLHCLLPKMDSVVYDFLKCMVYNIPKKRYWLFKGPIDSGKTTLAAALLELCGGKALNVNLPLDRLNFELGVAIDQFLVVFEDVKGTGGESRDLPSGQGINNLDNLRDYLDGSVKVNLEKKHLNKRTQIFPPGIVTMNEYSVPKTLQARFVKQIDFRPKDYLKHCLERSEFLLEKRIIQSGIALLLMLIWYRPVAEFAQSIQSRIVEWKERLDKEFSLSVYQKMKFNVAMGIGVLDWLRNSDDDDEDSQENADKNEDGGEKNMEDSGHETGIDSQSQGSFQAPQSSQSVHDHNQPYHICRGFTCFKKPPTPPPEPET
# [7] = viability of HCT116 lacking mutant beta-catenin – cell-based, human colon tumor, dose response (AID 1045); type: functional;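 note: HCT116 colon tumor cells with beta catenin knocked out; cells exposed to compound for 60 hours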
# [8] = viability of PTEN-deleted HCT116 cells – cell-based, HCT116 PTEN knockout, dose response (AID 1047); type: functional;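 note: HCT116 colon tumor cells with PTEN knocked out; cells exposed to compound for 60 hours before readout; potency for loss of cell viability measured by luminescence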
# [9] = target: Nonstructural protein 1 (Influenza A virus, UniProt Q194T2); type: functional, Influenza A virus (A/California/07/2009(H1N1))
# Sequence of Nonstructural protein 1 (Q194T2 whole entry): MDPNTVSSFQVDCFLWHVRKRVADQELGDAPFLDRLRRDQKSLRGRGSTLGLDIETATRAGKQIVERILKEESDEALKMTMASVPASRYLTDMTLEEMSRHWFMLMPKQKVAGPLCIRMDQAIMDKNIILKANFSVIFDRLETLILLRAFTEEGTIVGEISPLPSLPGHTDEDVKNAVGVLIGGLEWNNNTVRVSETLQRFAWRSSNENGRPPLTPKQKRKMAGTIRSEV
# [10] = target: T2, Heat shock factor protein 1 (Mus musculus, UniProt P38532); experiment: enhancement of HSF1-driven luciferase signal – cell-based, NIH3T3, luminescence, dose retest, confirmation (AID 435004); type: functional;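 note: stress induced by proteasome inhibitor MG132 added 30 min after compound; luciferase reporter driven by HSF1 response element in NIH3T3 cells; actives raise luminescence as potentiators of the MG132 stress response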
# T2 sequence (P38532 whole entry): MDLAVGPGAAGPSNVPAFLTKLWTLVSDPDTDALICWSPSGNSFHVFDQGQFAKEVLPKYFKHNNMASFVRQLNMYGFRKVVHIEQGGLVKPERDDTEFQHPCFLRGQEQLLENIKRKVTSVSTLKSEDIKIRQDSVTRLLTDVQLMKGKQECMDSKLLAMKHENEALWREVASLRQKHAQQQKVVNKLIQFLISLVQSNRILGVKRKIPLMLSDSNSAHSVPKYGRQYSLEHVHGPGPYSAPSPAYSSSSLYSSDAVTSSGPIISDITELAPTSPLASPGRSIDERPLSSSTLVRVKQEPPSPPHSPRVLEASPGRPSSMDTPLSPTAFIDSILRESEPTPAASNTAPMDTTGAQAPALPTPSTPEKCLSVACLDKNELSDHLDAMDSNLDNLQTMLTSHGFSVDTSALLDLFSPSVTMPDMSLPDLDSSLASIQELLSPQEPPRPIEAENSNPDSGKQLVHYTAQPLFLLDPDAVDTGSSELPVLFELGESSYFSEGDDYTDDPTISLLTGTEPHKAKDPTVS
# [11] = NIH3T3 cell viability loss – ATP luminescence, mouse fibroblasts, counter-screen, dose response (AID 2010); type: functional, cell-based;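 note: cells exposed to compound for about 90 hours before reading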
# [12] = Trypanosoma cruzi growth suppression in host cells – NIH3T3 host cells, beta-gal luminescence, confirmation (AID 2044); type: functional, cell-based;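 note: intracellular parasites grown in NIH/3T3 mouse fibroblasts as host cells; luminescent beta-galactosidase reporter signal from transgenic T. cruzi replicating inside host cells; inhibitors lower the luminescence signal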
# [13] = viability of uninfected HEp-2 cells – cell-based, HTS, cytotoxicity control for RSV inhibitor project, dose response (AID 2410); type: functional; conditions: human respiratory syncytial virus
# [14] = system: INS1; experiment: INS-1E survival protection against cytokine death – cell-based, luminescence, retest, dose response (AID 449756); type: functional; conditions: Rattus norvegicus;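 note: cell death triggered by IL-1 beta plus TNF-alpha plus IFN-gamma mixture; protective hits raise ATP signal compared with cytokine alone wells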
# [15] = Luminescence Cell-Based Dose Retest to Confirm Inhibitors of Cancer Stem Cells. [Related pubchem assays (depositor defined):AID2717, AID2721]; type: functional; conditions: Homo sapiens
# [16] = target: Glyceraldehyde-3-phosphate dehydrogenase (Homo sapiens, UniProt P04406)
# Sequence of Glyceraldehyde-3-phosphate dehydrogenase (P04406 whole entry): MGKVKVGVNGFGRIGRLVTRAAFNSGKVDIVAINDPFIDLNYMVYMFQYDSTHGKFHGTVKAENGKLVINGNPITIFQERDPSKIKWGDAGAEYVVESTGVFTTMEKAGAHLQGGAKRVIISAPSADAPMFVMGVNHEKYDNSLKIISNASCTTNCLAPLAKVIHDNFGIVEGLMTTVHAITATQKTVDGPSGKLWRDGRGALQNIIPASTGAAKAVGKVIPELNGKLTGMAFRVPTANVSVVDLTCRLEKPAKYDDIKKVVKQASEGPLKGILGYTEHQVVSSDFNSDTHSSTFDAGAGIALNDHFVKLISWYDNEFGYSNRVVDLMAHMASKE
# [17] = target: Paired box protein Pax-8 (Homo sapiens, UniProt Q06710); experiment: PAX8 transcriptional activity inhibition in RMG-I – RMG-I cells, luciferase, cherry-pick, dose response (AID 687027); type: functional, cell-based;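 note: luciferase reporter driven by Pax8 target thyroperoxidase promoter measured by SteadyGlo luminescence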
# Sequence of Paired box protein Pax-8 (Q06710 whole entry): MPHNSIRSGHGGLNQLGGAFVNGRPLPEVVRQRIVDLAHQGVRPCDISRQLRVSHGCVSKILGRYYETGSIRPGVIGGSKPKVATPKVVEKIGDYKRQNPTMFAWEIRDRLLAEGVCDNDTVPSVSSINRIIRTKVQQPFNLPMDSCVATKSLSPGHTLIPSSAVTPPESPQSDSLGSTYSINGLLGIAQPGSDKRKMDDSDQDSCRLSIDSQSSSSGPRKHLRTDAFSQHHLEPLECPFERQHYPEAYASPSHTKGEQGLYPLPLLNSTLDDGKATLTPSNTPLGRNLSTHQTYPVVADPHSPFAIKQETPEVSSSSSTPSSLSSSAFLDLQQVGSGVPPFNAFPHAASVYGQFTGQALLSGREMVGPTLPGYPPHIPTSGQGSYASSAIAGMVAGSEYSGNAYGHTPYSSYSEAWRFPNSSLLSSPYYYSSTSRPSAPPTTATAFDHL
# [18] = fluconazole-exposed Candida albicans growth modulators – fluorescence, retest, confirmation (AID 2467); type: functional, cell-based
# [19] = system: Streptococcus; experiment: GAS UMAA2166 growth inhibition – luminescence, BacTiterGlo, counter-screen for streptokinase expression inhibitor project, dose response (AID 1915); type: functional, organism-based;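 note: potency for reduction of bacterial viability or growth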
# [20] = system: Streptococcus sp. 'group A'; experiment: Streptococcus pyogenes SK(-)GAS viability under kanamycin – luminescence, BacTiterGlo, confirmation, counter-screen for streptokinase expression inhibitor project, dose response (AID 1900); type: functional, organism-based
# [21] = target: T3, Streptokinase A (Streptococcus pyogenes serotype M1, UniProt P10520); experiment: viability-normalized secreted streptokinase activity reduction – plasminogen activation absorbance, OD405, dose response (AID 1914); type: functional, Streptococcus pyogenes M1 GAS;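 note: secreted streptokinase activity via plasminogen activation per viability signal from cell pellet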
# T3 sequence (P10520 whole entry): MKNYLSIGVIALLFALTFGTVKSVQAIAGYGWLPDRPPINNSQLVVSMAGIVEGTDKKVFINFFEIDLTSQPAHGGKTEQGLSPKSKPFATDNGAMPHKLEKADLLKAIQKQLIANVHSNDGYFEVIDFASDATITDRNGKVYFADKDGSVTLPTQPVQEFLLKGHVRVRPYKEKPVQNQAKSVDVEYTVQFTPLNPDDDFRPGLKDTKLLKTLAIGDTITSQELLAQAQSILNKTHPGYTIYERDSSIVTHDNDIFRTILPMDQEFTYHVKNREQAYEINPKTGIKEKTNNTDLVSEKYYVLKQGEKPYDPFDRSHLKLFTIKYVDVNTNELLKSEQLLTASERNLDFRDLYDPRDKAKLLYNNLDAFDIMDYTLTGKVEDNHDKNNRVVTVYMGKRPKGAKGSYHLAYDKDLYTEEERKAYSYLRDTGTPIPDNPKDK
# [22] = NIH-3T3 fibroblast cytotoxicity, dose response, cytotoxicity control, cell-based, fluorescence, Alamar Blue, secondary assay (AID 2327); type: functional;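 note: NIH-3T3 mouse fibroblasts cultured with fluconazole at 8 µg/mL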
# [23] = target: T2, Heat shock factor protein 1; experiment: decrease of HSF1-responsive luciferase luminescence – cell-based, NIH3T3, dose retest, confirmation (AID 2382); type: functional;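 note: NIH3T3 fibroblasts with HSF1-driven luciferase reporter stressed by proteasome inhibitor MG132; luminescence from HSF1-driven luciferase expression after 8 hours of MG132 stress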
compound,measurement,setting,value
COc1cc(OC)cc(C(=O)NNC(=O)CCc2nc(O)c3ccccc3n2)c1,IC50,[1],19.6 µM (active)
NCCCC[C@@H]1NC(=O)c2cc([N+](=O)[O-])cc(I)c2SC[C@@H](C(N)=O)NC(=O)[C@H](Cc2ccc(O)cc2)NC1=O,IC50,[2],> 20 µM (inactive)
O=C(CCC(=O)N1CCOc2ccc(Cl)cc21)NCCCN1CCN(c2ccccc2F)CC1,IC50,[2],> 20 µM (inactive)
Cc1ccc(S(=O)(=O)N2[C@H](c3cccc(Cl)c3)CC(=O)[C@@H]3CN(S(=O)(=O)c4ccccc4C)[C@H](c4ccc(Cl)cc4)C[C@@H]32)cc1,AC50,[3],5.61 µM (active)
same,AC50,[4],0.62 µM (active)
same,AC50,[5],0.289 µM (active)
O=C(CSC1=NS(=O)(=O)c2ccccc21)Nc1ccccc1,IC50,[6],12.2 µM (active)
same,IC50,[2],> 20 µM (inactive)
O=C(CNCCC1=CCCCC1)Nc1ccc(N2CCCCCC2)cc1,EC50,[7],12.3 µM (active)
same,EC50,[8],15.3 µM (active)
same,IC50,[9],13.8 µM (active)
COc1ccc(CCNCc2cc(C)n(-c3ccc(OC)cc3)c2C)cc1,EC50,[10],> 260 µM (inactive)
same,EC50,[11],> 60 µM (not active)
same,EC50,[12],1.85 µM (active)
same,IC50,[9],44.7 µM (active)
CCSc1nc(N2CCCCC2)c2c(c1C#N)CCCC2,IC50,[2],> 20 µM (inactive)
CCOc1cccc2sc(N(CCCN(C)C)C(=O)c3ccc(S(=O)(=O)N(CC)Cc4ccccc4)cc3)nc12,CC50,[13],27.7 µM (active)
same,IC50,[2],> 20 µM (inactive)
COC(=O)Oc1ccc(/C=C/C(=O)OC(C)C)cc1OC(=O)OC,IC50,[1],> 79 µM (inactive)
same,AC50,[4],2.56 µM (active)
same,AC50,[5],3.29 µM (active)
CCCN1CCN(C(=O)CCc2nnc3ccc(N4CCN(c5cccc(OC)c5)CC4)nn23)CC1,IC50,[1],> 79 µM (inactive)
O=C(NCC1CCCO1)C(c1ccc(F)cc1)N(C(=O)Cn1nnc(-c2ccc(F)cc2)n1)c1cccc(O)c1 (stereo not drawn),IC50,[1],> 79 µM (inactive)
CCOc1ccccc1C(=O)N/N=C/c1cccc2cccnc12,IC50,[1],12.4 µM (active)
same,IC50,[9],32.3 µM (active)
Cn1c(C(=O)NCCCN2CCN(c3cccc(Cl)c3)CC2)cc2c(=O)n(C)c3ccccc3c21,IC50,[2],> 20 µM (inactive)
CCN(CC)CCNC(=O)c1ccc(NC(=O)/C=C/c2ccc3ccccc3n2)cc1,IC50,[9],> 100 µM (active)
Cc1ccc(C(=O)Nc2nc(-c3ccccn3)cs2)cc1S(=O)(=O)N1CCOCC1,AC50,[3],> 70 µM (inactive)
same,AC50,[14],1.36 µM (active)
same,IC50,[9],7.81 µM (active)
same,AC50,[4],0.976 µM (active)
same,AC50,[5],0.838 µM (active)
COC(=O)C1=C(C)N(Cc2ccccc2)C(NCCc2c[nH]c3ccccc23)=N[C@H]1c1cccc(F)c1,AC50,[15],6.45 µM (active)
same,IC50,[2],> 20 µM (inactive)
Cc1cc(C)cc(N(CCC#N)C(=O)COC(=O)Cn2[nH]c(=O)c3ccccc3c2=O)c1,IC50,[1],> 79 µM (inactive)
CCCCCCCCC(=O)N1CCN(c2cc3c(cc2F)c(=O)c(C(=O)O)cn3CC)CC1,IC50,[2],> 20 µM (inactive)
Nc1ccc2c(c1)nc(O)c1ccccc12,IC50,[1],8.49 µM (active)
COc1ccc(F)cc1S(=O)(=O)Nc1cnc2ccccc2c1,IC50,[16],> 10 µM (inconclusive)
NS(=O)(=O)c1ccc(NS(=O)(=O)c2ccc(O)c(C(=O)O)c2)cc1,IC50,[16],> 100 µM (not active)
Cc1cccc(N2C(=O)C(Cl)=C(N3CCN(Cc4ccc5c(c4)OCO5)CC3)C2=O)c1,IC50,[16],> 50 µM (inconclusive)
Cn1c(SCc2cccc(Br)c2)nc2ccccc2c1=O,AC50,[3],59.8 µM (active)
same,AC50,[4],3.47 µM (active)
same,AC50,[5],7.68 µM (active)
C[C@@H]1CN([C@H](C)CO)S(=O)(=O)c2ccc(C#CC3CCCC3)cc2O[C@@H]1CN(C)C(=O)Cc1ccncc1,AC50,[17],16.5 µM (active)
O=C(O)c1cc(S(=O)(=O)Nc2cccc(Cl)c2)ccc1O,IC50,[16],> 100 µM (not active)
Cc1c(NC(=S)N/N=C\c2ccccc2O)c(=O)n(-c2ccccc2)n1C,IC50,[9],6.13 µM (active)
COc1ccc(N=NC2C(=O)N(c3ccccc3)N=C2C)cc1 (stereo not drawn),IC50,[9],27.1 µM (active)
Cc1cc(C)c(C(=O)/C=C/c2cccc3ccccc23)c(O)n1,AC50,[17],5.27 µM (active)
same,EC50,[10],6.62 µM (active)
Cc1cc(C)cc(OCC(=O)Nc2cccc(-c3nnc(-c4ccco4)o3)c2)c1,IC50,[1],9.22 µM (active)
CC(C)(C)OC(=O)NCCCCCNC(=O)c1[nH]cnc1C(=O)Nc1ccc(Cl)cc1,IC50,[1],> 79 µM (inactive)
O=Cc1ccc(OCc2cccc(C(F)(F)F)c2)cc1O,IC50,[1],> 79 µM (inactive)
O=C(c1ccc(-c2nc3ccccc3s2)o1)N1CCN(c2ccccc2O)CC1,IC50,[1],> 79 µM (inactive)
O=C(COc1ccc(F)cc1)Nc1nc(-c2ccccn2)cs1,EC50,[18],2.59 µM (active)
same,EC50,[19],16.1 µM (active)
same,IC50,[1],16.1 µM (active)
same,EC50,[20],7.19 µM (active)
same,EC50,[21],> 150 µM (not active)
same,EC50,[22],> 150 µM (inactive)
O=C1C(Cl)=C(N2CCN(CCOCCO)CC2)C(=O)N1c1ccc(Cl)nc1,IC50,[16],> 50 µM (inconclusive)
CCN(CC(=O)Nc1c(F)cccc1F)C(=O)CCc1nc(O)c2ccccc2n1,IC50,[1],> 79 µM (inactive)
Cc1ccc(O)c(CNCCNCc2cc(C)ccc2O)c1,IC50,[2],> 20 µM (inactive)
Cc1ccc(S(=O)(=O)CCC(=O)OCC(=O)Nc2cc(S(=O)(=O)N3CCOCC3)ccc2C)cc1,AC50,[4],1.76 µM (active)
same,AC50,[5],17.8 µM (active)
CCC(C)(C)NC(=O)CN(C(=O)c1snc(C(N)=O)c1N)c1ccc2nc(C)sc2c1,IC50,[2],> 20 µM (inactive)
CC(=O)Nc1cccc(-c2cc(NC=O)c3ncc(-c4cccc(C(C)=O)c4)n3c2)c1,IC50,[1],> 79 µM (inactive)
C[C@@H]1CCCCO[C@@H](CN(C)C(=O)Nc2ccc(C(F)(F)F)cc2)[C@H](C)CN([C@@H](C)CO)C(=O)c2cc(NC(=O)Nc3ccc(C(F)(F)F)cc3)ccc2O1,AC50,[17],2.31 µM (active)
CN(C)S(=O)(=O)c1ccc(Oc2ccc(S(=O)(=O)N(C)C)cc2)cc1,AC50,[3],53.5 µM (active)
same,AC50,[14],6.33 µM (active)
same,AC50,[4],12.1 µM (active)
same,AC50,[5],3.04 µM (active)
COc1ccc(C=NNc2nc3c(=O)n(C)c(=O)n(C)c3[nH]2)cc1,IC50,[1],> 79 µM (inactive)
O=C(COc1ccc(F)cc1Cl)Nc1nc(-c2ccccn2)cs1,EC50,[23],41.4 µM (active)
same,EC50,[11],3.74 µM (active)
same,EC50,[19],3.29 µM (active)
same,EC50,[12],1.57 µM (active)
same,IC50,[1],> 79 µM (inactive)
same,EC50,[20],0.751 µM (active)
